Tests used:
Assay type in all cases: binding
[1] = biological target: kinases (KINOMEscan panel) (Homo sapiens, UniProt Q52WX2); conditions: SBK1; NEW KINOMEscan
[2] = biological target: kinases (KINOMEscan panel) (Homo sapiens, UniProt P49760); conditions: kinase CLK2; NEW KINOMEscan
[3] = biological target: kinases (KINOMEscan panel) (Homo sapiens, UniProt Q04759); conditions: kinase PRKCQ; NEW KINOMEscan
[4] = biological target: T1, kinases (KINOMEscan panel) (Homo sapiens, UniProt Q8N568); conditions: NEW KINOMEscan
T1 sequence (Q8N568 1-766): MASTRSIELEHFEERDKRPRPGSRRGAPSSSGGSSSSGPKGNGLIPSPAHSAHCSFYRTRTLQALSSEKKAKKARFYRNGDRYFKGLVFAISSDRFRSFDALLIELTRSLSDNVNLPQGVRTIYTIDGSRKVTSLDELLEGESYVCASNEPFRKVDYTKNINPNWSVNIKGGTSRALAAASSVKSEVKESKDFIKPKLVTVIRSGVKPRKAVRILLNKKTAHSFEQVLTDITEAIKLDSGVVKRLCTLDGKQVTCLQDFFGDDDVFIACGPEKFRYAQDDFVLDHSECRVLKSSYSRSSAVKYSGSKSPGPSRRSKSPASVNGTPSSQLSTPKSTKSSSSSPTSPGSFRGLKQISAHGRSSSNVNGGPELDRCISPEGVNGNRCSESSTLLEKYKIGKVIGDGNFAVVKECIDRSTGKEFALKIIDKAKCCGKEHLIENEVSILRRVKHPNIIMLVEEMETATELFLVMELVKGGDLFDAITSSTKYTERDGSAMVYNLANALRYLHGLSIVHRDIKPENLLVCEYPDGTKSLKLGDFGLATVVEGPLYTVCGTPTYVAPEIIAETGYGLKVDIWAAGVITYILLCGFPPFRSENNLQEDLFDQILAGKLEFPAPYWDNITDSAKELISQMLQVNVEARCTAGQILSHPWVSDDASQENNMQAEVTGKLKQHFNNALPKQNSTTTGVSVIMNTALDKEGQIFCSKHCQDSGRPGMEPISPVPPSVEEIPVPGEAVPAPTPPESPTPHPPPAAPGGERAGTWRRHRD

[5] = biological target: kinases (KINOMEscan panel) (Homo sapiens, UniProt Q13233); conditions: MAP3K1; NEW KINOMEscan
[6] = biological target: kinases (KINOMEscan panel) (Homo sapiens, UniProt Q9HCP0); conditions: kinase CSNK1G1; NEW KINOMEscan
[7] = biological target: kinases (KINOMEscan panel) (Homo sapiens, UniProt P12931); conditions: SRC; NEW KINOMEscan
[8] = biological target: kinases (KINOMEscan panel) (Homo sapiens, UniProt P11309); conditions: NEW KINOMEscan
[9] = biological target: kinases (KINOMEscan panel) (Homo sapiens, UniProt P00533, G719S); conditions: EGFR(G719S); NEW KINOMEscan
[10] = biological target: T2, kinases (KINOMEscan panel) (Homo sapiens, UniProt O95835); conditions: LATS1; NEW KINOMEscan
T2 sequence (O95835 1-1130): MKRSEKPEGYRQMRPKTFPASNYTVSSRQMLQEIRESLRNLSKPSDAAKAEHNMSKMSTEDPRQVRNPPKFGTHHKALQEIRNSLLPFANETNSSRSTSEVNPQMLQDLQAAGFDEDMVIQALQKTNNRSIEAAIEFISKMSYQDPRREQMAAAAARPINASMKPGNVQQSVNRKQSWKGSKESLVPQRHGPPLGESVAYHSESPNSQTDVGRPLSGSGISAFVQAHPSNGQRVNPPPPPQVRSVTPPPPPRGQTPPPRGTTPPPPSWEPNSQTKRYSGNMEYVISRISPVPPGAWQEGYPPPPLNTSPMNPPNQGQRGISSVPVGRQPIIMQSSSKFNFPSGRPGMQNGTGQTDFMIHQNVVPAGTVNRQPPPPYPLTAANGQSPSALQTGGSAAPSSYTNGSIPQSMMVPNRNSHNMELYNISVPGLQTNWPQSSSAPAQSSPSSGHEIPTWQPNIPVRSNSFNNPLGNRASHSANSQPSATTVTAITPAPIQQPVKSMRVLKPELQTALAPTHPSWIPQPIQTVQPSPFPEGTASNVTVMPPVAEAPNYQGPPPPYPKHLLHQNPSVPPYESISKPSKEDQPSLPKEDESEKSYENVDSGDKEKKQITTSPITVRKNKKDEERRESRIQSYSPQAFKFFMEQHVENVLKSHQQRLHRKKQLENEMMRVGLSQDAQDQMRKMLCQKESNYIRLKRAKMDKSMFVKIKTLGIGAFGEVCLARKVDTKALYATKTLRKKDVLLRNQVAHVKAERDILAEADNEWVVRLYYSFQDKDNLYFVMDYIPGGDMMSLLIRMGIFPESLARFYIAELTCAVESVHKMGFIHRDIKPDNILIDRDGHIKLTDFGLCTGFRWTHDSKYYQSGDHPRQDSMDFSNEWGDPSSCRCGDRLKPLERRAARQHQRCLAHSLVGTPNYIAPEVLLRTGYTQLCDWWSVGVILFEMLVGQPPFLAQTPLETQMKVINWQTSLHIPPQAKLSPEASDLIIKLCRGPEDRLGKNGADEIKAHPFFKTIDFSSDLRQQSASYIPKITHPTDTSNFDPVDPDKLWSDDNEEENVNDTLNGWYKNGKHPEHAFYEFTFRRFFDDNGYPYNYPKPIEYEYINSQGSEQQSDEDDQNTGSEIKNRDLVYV

[11] = biological target: T3, kinases (KINOMEscan panel) (Homo sapiens, UniProt Q9HBY8); conditions: NEW KINOMEscan
T3 sequence (Q9HBY8 1-367): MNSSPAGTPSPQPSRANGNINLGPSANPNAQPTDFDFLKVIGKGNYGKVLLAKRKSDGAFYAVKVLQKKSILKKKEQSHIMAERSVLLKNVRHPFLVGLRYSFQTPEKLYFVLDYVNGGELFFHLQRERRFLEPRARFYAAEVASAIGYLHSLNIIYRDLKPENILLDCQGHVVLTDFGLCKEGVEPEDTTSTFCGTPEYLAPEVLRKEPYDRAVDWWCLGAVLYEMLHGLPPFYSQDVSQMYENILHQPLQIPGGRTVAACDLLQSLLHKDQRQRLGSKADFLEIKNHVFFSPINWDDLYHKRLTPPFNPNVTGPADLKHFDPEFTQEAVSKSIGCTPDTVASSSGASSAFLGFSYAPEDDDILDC

kinases (KINOMEscan panel) (Homo sapiens, UniProt P12931), sequence (P12931 whole entry): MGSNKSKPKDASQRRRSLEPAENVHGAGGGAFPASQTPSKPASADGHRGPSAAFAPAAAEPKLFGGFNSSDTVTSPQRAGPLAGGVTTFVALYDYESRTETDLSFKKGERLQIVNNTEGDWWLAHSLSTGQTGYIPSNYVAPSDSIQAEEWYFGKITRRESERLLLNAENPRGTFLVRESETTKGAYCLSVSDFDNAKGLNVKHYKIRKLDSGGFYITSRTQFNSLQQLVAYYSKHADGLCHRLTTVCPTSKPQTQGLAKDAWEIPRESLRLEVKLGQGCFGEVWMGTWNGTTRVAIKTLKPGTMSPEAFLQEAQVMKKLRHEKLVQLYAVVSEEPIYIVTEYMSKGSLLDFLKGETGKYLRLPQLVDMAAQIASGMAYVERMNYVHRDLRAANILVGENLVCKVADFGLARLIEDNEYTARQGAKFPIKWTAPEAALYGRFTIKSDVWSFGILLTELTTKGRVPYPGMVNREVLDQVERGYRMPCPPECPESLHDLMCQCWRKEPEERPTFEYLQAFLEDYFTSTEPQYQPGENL
kinases (KINOMEscan panel) (Homo sapiens, UniProt P00533, G719S), sequence (P00533 25-1210 G719S): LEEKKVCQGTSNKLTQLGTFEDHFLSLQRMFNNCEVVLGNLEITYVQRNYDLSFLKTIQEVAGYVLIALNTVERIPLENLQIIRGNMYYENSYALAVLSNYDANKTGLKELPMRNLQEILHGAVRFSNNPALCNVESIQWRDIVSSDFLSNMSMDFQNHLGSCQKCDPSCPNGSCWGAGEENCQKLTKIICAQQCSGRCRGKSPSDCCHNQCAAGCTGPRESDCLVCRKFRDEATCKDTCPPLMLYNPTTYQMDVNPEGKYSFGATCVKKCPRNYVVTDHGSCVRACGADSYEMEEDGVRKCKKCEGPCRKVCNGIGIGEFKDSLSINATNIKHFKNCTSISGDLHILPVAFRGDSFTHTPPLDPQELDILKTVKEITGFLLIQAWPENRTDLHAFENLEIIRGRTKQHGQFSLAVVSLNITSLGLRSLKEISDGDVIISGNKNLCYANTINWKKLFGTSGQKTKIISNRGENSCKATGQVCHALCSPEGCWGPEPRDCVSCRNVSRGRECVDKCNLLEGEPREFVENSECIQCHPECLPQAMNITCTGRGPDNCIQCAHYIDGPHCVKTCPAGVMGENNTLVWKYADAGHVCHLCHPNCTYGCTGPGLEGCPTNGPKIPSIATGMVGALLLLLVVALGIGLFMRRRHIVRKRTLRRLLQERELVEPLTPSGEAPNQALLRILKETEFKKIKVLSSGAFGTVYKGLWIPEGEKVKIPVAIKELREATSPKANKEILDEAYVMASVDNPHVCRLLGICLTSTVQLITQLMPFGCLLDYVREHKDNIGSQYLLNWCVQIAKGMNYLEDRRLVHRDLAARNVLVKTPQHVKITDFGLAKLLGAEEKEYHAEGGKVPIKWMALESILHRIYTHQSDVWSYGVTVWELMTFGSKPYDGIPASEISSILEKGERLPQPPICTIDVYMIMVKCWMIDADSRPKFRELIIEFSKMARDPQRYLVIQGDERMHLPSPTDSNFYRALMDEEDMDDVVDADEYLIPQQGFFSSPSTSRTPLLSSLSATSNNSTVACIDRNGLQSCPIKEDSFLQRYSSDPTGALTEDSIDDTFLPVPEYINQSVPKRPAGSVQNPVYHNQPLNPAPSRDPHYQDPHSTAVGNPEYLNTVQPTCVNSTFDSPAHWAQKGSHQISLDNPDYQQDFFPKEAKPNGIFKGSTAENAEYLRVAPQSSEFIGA
kinases (KINOMEscan panel) (Homo sapiens, UniProt Q04759), sequence (Q04759 whole entry): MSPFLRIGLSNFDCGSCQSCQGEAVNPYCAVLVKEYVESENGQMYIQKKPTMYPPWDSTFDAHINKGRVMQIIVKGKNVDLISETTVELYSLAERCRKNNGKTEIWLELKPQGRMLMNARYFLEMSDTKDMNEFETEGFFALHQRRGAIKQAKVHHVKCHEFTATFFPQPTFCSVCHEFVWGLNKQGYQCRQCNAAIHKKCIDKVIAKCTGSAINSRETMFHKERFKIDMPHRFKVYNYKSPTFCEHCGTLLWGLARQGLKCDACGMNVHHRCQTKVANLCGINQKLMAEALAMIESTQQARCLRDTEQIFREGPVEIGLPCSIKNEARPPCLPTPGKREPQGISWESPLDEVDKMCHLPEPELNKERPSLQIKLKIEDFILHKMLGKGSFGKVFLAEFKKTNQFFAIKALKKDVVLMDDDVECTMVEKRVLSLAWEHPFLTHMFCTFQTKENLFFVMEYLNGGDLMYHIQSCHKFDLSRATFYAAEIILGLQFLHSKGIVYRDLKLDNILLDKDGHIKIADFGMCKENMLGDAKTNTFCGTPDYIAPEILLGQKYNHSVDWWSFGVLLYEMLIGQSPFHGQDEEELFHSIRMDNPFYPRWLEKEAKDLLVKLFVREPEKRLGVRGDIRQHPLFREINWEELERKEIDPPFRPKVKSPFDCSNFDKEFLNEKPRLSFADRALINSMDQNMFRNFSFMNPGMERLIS
kinases (KINOMEscan panel) (Homo sapiens, UniProt Q52WX2), sequence (Q52WX2 whole entry): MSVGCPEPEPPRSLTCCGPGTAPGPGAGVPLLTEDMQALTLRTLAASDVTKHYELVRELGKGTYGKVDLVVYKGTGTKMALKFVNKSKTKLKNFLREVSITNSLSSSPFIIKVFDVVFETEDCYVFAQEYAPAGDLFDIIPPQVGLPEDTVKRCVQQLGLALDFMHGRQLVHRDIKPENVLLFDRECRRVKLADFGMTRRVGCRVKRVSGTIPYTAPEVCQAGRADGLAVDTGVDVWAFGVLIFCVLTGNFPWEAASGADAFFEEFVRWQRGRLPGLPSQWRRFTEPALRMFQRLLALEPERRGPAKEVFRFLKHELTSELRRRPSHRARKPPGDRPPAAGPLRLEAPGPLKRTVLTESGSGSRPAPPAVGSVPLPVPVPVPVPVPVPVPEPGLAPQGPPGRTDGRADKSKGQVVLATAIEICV
kinases (KINOMEscan panel) (Homo sapiens, UniProt P11309), sequence (P11309 whole entry): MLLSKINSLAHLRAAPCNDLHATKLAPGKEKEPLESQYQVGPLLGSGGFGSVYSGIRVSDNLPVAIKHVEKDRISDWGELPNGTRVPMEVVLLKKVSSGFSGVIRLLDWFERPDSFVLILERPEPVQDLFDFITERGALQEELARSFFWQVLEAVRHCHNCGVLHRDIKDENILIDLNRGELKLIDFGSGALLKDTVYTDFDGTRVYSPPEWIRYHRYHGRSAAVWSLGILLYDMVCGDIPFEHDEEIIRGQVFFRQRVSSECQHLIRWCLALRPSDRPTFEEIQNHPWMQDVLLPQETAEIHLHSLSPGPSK
kinases (KINOMEscan panel) (Homo sapiens, UniProt Q9HCP0), sequence (Q9HCP0 whole entry): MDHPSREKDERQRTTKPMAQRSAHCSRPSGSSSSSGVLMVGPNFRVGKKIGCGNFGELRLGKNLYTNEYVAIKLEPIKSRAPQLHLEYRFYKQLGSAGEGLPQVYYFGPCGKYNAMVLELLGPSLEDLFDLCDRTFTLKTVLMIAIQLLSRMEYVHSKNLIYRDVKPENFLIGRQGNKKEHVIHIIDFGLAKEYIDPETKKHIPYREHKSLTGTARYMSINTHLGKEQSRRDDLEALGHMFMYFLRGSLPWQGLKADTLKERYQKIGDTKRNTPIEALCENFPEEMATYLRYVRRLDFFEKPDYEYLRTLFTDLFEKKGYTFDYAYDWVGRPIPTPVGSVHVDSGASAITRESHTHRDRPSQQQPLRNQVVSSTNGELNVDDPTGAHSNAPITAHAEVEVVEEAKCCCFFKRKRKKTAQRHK
kinases (KINOMEscan panel) (Homo sapiens, UniProt P49760), sequence (P49760 whole entry): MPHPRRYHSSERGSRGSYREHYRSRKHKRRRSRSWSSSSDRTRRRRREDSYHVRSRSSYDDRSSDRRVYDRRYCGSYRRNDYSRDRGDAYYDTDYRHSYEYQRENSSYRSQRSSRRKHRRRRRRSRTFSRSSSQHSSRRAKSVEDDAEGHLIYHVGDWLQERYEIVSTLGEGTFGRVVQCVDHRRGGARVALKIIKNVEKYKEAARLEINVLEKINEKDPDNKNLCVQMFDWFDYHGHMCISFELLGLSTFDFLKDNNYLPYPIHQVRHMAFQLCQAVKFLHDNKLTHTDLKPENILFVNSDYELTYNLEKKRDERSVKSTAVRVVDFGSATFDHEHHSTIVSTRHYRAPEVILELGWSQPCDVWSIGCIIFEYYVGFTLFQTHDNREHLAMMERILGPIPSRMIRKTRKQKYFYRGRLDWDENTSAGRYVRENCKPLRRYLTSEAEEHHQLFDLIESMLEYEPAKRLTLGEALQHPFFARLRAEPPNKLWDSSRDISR

| Compound | KINOMEscan SBK1 [1] | KINOMEscan CLK2 [2] | KINOMEscan PRKCQ [3] | KINOMEscan DCLK2 [4] | KINOMEscan MAP3K1 [5] | KINOMEscan CSNK1G1 [6] | KINOMEscan SRC [7] | KINOMEscan PIM1 [8] | KINOMEscan EGFR(G719S) [9] | KINOMEscan LATS1 [10] | KINOMEscan SGK2 [11] |
| --- | --- | --- | --- | --- | --- | --- | --- | --- | --- | --- | --- |
| Cc1cccc(-c2nc(Nc3ccc4nn(C)cc4c3)c3ccccc3n2)n1 [NK167] | 0 | 0 | 0 | 11 | 0 | 0 | 13 | 2 | 0 | 0 | 0 |
| Cc1cccc(-c2nc(N(C)c3ccc4ncsc4c3)c3ccccc3n2)n1 [NK-161] | 0 | 0 | 7 | 25 | 0 | 0 | 18 | 29 | 0 | 5 | 15 |

Source: PMC9851200, “Multiparameter phenotypic screening for endogenous TFEB and TFE3 translocation identifies novel chemical series modulating lysosome function” (Autophagy, 2022)
